Results published in paper PMC6800772 (Molecular microbiology, 2019).
Structures can show the parent of a compound that is named as a salt.

Molecular target: Pdr5 (Saccharomyces cerevisiae, UniProt P33302, A666G)
Assay: inhibition of R6G transport in whole cells
Assay type: cell-based

Sequence of Pdr5 (P33302 whole entry A666G): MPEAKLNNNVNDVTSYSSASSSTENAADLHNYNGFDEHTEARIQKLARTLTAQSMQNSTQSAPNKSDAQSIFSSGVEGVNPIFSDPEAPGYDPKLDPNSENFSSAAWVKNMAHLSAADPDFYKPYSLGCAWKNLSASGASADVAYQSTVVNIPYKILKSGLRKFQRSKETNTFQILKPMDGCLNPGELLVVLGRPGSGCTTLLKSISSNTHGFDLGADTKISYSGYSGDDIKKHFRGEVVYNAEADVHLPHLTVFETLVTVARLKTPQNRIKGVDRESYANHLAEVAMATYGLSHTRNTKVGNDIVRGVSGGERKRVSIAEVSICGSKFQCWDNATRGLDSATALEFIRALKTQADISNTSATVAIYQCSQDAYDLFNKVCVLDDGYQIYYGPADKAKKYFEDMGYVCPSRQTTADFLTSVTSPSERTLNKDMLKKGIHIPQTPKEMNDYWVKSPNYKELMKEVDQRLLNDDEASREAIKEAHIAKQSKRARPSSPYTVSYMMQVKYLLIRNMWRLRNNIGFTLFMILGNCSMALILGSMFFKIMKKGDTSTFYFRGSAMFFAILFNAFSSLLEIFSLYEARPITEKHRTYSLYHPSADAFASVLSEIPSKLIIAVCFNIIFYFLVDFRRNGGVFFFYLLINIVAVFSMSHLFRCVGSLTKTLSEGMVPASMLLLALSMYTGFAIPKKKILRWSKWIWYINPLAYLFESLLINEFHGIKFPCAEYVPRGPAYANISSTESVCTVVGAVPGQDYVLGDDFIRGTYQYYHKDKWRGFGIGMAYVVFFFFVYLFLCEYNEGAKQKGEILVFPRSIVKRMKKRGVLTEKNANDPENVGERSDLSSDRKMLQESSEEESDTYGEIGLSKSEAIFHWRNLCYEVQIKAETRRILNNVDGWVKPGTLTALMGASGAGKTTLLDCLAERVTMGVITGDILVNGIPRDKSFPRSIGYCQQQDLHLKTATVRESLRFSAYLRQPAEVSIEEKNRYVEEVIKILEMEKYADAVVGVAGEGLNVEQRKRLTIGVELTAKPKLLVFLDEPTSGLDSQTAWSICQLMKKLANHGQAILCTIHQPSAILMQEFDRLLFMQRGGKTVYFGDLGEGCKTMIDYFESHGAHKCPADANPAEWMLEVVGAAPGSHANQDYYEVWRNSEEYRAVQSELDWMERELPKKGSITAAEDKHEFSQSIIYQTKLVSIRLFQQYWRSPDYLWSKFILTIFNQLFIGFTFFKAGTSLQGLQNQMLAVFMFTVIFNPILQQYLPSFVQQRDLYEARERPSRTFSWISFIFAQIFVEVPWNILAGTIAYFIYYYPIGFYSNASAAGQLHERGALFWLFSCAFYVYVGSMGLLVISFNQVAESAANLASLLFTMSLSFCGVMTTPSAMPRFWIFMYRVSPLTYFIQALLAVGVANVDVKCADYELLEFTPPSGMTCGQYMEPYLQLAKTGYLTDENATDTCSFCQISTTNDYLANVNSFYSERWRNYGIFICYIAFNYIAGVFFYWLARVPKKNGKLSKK

C=CCOC(Cn1ccnc1)c1ccc(Cl)cc1Cl (stereo not shown) [imazalil sulfate] gave an IC50 of roughly 100 µM.
